Measured values from patent US4562196A, “2,4-Diaminopyridine as a pharmacologic agent” (Nelson Research & Development, priority 1984, dated 1985).

How the values were obtained:
mice [1] = details: i.p., Vohra et al., J. Med. Chem. 8, 296 (1965); cited from earlier work
mice [2] = assay: Acute toxicity (LD50), intraperitoneal, mice; format: in vivo; details: from LD50 values
Method: Moreover, the LD50 values for intraperotoneal 4-AP and 3,4-DAP in mice are 10 mg./kg. and 20 mg./kg., respectively (Vohra, et al. J. Med. Chem 8, 296-304 (1965)). The LD50 dosage corresponds to a lethal dose in 50% of the animals treated. Thus, although not as toxic as 4-AP, 3,4-DAP suffers from the similar disadvantage of high toxicity at dosage levels near those that would be used in therapy.

[3] = 4-AP compared with 3,4-DAP; cited from earlier work
[4] = system: neuromuscular transmission blocked with pancuronium bromide (rat phrenic nerve-hemidiaphragm); assay: Rat hemidiaphragm: antagonism of pancuronium blockade in vitro; parameters: species or system male Wistar rats; details: for EC50: 90% block by pancuronium bromide about 8×10^-6 M, 37° C., cumulative addition, read-out: EC50 (concentration that produces a 50% antagonism)
Method: Left hemidiaphragms with their phrenic nerves were removed from male Wistar rats weighing 280-320 g. and were mounted in an organ bath, containing Krebs solution, maintained at 37° C. and gassed with oxygen containing 5% CO2. The nerve was stimulated at a frequency of 0.1 Hz via electrodes with rectangular pulses of 0.3 ms duration and of a strength greater than that required to reproduce maximal twitch.

[5] = system: neuromuscular block by pancuronium bromide (sciatic nerve-anterior tibialis); assay: Rat sciatic nerve-anterior tibialis preparation: antagonism of neuromuscular block in vivo; parameters: species or system Rats; details: for ED50: Rattus norvegicus, iv, 10 min, read-out: ED50 (dose of drug producing a 50% antagonism), constant pancuronium infusion, 90-95% depression of twitch tension, cumulative dosing, 10 min interval
Method: This preparation is used to test the antagonistic action of aminopyridines against neuromuscular blocking agents in vivo. (Miller, Denissen, van der Pol, Agoston, Booy and Crul, J. Pharm. Pharmacol. 30, 699 (1978)).
Rats were administered a constant infusion of pancuronium bromide and when a constant block was achieved, one of the aminopyridines was administered. The ED50 's (dose of drug producing a 50% antagonism) were determined.
Rats (280-320 g) were anaesthetized with pentobarbital. Both jugular veins were cannulated for administration of drugs. A caratoid artery was cannulated for measurement and recording of arterial blood pressure. The trachea was intubated and ventilation controlled by means of a Braun air pump. The tendon of the left tibialist was freed, sectioned and connected to a force displacement transducer. The sciatic nerve was stimulated by supramaximal 0.1 Hz stimuli of 0.2 msec duration through a bipolar electrode. Twitch tension was recorded on a polygraph. The temperature of the rat was maintained at 37° C. with heating lamps. Pancuronium bromide was administered intravenously by continuous infusion until 90-95% depression of twitch tension was obtained. This infusion speed was maintained during the whole experiment. When the block was steady for at least 15 min one of the drugs was given cumulatively with 10 min interval.

[6] = in vitro; vs 4-AP; cited from earlier work
central nervous system = details: in vivo; cited from earlier work
[7] = system: potassium channel in axonal membranes; details: cited from earlier work
guinea-pig ileum = assay: Ileum of the guinea pig: activity on smooth muscle; details: for pD2 (negative logarithm of the dose required to produce 50% of the maximum response): compared to maximal contraction by 2×10^-7 M carbochol, 37° C.
Method: This preparation tests the pharmacological activity on smooth muscle (Moritoki, Takei, Makomoto and Ishida, Arch. Int. Pharmacodyn. Ther. 232, 28 (1978).
The […] of the ileum was measured. This is compared to the maximal contraction caused by carbochol. From dose response curves the following pD2 values were determined (the pD2 value is the negative logarithm of the dose required to produce 50% of the maximum response).
Segments of guinea-pig ileum of 3 to 4 cm. length from 10 cm above the ileocaecal junction were used. The oral end of each segment was fixed to a hook and the distal end was connected to an isotonic transducer with a 1 g counterweight. The preparation was then immersed to an organ bath (25 ml) at 37° C. containing Krebs solution and bubbled with oxygen containing 5% CO2. After an equilibration time of about 1 hour, 2×10^-7 M carbochol was added to the bath for maximal contraction. After wash out (2×) the drugs were added cumulatively to the bath.

rat heart = assay: Isolated heart of the rat: positive inotropic action; parameters: species or system male Wistar rats; details: for changes in frequency or E.C.G.: same perfusion as L.V.P.
Method: This preparation evaluates the positive inotropic action of a drug (Koomen, van Gilst, Zimmerman and Noordwijk, Arch. Int. Pharmacodyn. Ther. 255, 212 (1982)).
Solutions of the aminopyridines were added to the perfusion solution of the rat heart. The left ventricular pressure (L.V.P.) was recorded in order to evalute the positive inotropic action. Frequency and E.C.G. were also monitored. Male Wistar rats (270-300 g) were anaesthetized with diethyl ether. After heparinization the hearts were quickly removed. Subsequently the heart was perfused according to the method of Langendorff. The perfusion fluid contained: NaCl 128 mM; KCl 4.7 mM; CaCl2 1.35 mM; MgCl2 1.05 mM; NaHPO4 0.42 mM; NaHCO3 20.2 mM; glucose 11.1 mM. The pH of the perfusion fluid after aeration with 95% O2 --5% CO2 was 7.35±0.05 (37° C.). L.V.P. was measured by means of a catheter inserted in the left ventricule and connected to a pressure transducer. A biopolar E.C.G. was obtained by means of two silver electrodes: one attached to the metal inflow cannula and the other to the ventricular apex. Coronary flow (volume of perfusion fluid per time unit) was measured by a microprocessor, which controlled the perfusion pressure by adjusting the peristaltic perfusion pump.

[8] = system: neuromuscular blocking drugs; details: with neostigmine and pyridostigmine; cited from earlier work
[9] = system: ketamine-xylazine narcosis; assay: Antagonism of ketamine-xylazine narcosis (central effects); format: in vivo, Rats
Method: This is a method of testing the central effects of the aminopyridines.
Rats were anaesthetized with xylazine (0.05 ml of a 2% soln, s.c.) and ketamine (0.1 ml of a soln, i.p.). After 10 min. the aminopyridines (1 mg./kg) were administered, i.v. The time required for "full recovery" (i.e. turning over and crawling) was measured. Groups of 10 rats were used for each treatment.

Nc1ccncc1N [3,4-Diaminopyridine, 3,4-diaminopyridine]
LD50 (mice [1]): 20 mg/kg | toxicity relative to 2,4-DAP (mice [2]): an order of magnitude more toxic than the compound of the present invention | action in vivo [3]: almost the same | EC50 [4]: 10 µM | ED50 [5]: 0.25 mg/kg | peripheral and central action relative to 4-AP [6]: stronger peripheral action and less central action than 4-AP in vitro | convulsions, central adverse effects (central nervous system): tendency to cause convulsions

Nc1ccncc1 [4-Aminopyridine, 4-aminopyridine]
potassium channel blocking action [7]: potassium channel blocking action in axonal membranes | LD50 (mice [1]): 10 mg/kg | toxicity relative to 2,4-DAP (mice [2]): an order of magnitude more toxic than the compound of the present invention | pD2 (negative logarithm of the dose required to produce 50% of the maximum response) (guinea-pig ileum): 4.30 | action in vivo [3]: almost the same | EC50 [4]: 55 µM | ED50 [5]: 0.45 mg/kg | increase of left ventricular pressure (L.V.P.) (rat heart; 2×10^-5 to 1×10^-4 mol/l): up to 40% | changes in frequency or E.C.G. (rat heart): No changes in frequency or E.C.G. were noted | convulsions, central adverse effects (central nervous system): hypertension and convulsions at dosage levels only slightly exceeding the clinical dosage | potentiation of anticholinesterase drugs [8]: potentiates anticholinesterase drugs

Nc1ccnc(N)c1 [2,4-Diaminopyridine, 2,4-diaminopyridine]
recovery compared with saline controls ([9]; 1 mg./kg, vs saline controls): did not differ significantly from controls receiving saline | central actions relative to 3,4-diaminopyridine ([9]; vs 3,4-diaminopyridine): somewhat weaker than those of 3,4-diaminopyridine | central actions relative to 4-aminopyridine ([9]; vs 4-aminopyridine): much weaker than those of 4-aminopyridine | pD2 (negative logarithm of the dose required to produce 50% of the maximum response) (guinea-pig ileum): 4.52 | potency relative to 4-aminopyridine (guinea-pig ileum; vs 4-aminopyridine): slightly more potent than 4-aminopyridine | EC50 [4]: 15 µM | potency relative to 3,4-diaminopyridine ([4]; vs 3,4-diaminopyridine): about the same potency as 3,4-diaminopyridine | potency relative to 4-aminopyridine ([4]; vs 4-aminopyridine): about 3.5 times more potent | ED50 [5]: 0.14 mg/kg | potency relative to 3,4-diaminopyridine ([5]; vs 3,4-diaminopyridine): about twice as potent as 3,4-diaminopyridine | potency relative to 4-aminopyridine ([5]; vs 4-aminopyridine): about 3 times more potent | increase of left ventricular pressure (L.V.P.) (rat heart; 5×10^-6 mol/l to 10^-4 mol/l): up to 50% | changes in frequency or E.C.G. (rat heart): No changes in frequency or E.C.G. were noted | effectiveness relative to 4-aminopyridine (rat heart; vs 4-aminopyridine): significantly more effective than 4-aminopyridine | convulsions, central adverse effects (central nervous system): has not been shown to cause convulsions
